Our source for the target mRNA inhibition values is the OligoGym collection.

Where “and” joins values, the source holds several entries; their conditions need not be identical. Equal entries are not always repeated. After the bases stand the sugars from the 5' end (letter, count) and the backbone: PS all phosphorothioate, else s phosphorothioate and o phosphodiester by linkage. Methylation of C is not given here. e = 2'-O-(2-methoxyethyl) (MOE); k = constrained ethyl (cEt); d = 2'-deoxy (DNA)

For the data set, the target named is APOL1. The settings on record: ASO.

GAATGAGCAGGTCAGA (sugars k4 d9 k3, PS) gave a target mRNA inhibition (A431, 0.0625 µM) of 41%; a target mRNA inhibition (A431, 0.25 µM) of 75%; a target mRNA inhibition (A431, 1 µM) of 91%.
Turning to TCATTTGCTAGGTGCC (sugars k4 d9 k3, PS), the target mRNA inhibition (A431, 0.0625 µM) is 43%; the target mRNA inhibition (A431, 0.25 µM) was determined as 72%; the target mRNA inhibition (A431, 1 µM) was found to be 85%.
On to “CTTTAAACTCAGGTGA (sugars kkkddddkekekdddd, PS)”, for which, where the note is “A431, 2 µM”, the target mRNA inhibition was found to be 40%.
Under “A431, 2 µM”, “TTCTCATGGTACAGGA (sugars k2 d4 e3 k2 d5, PS)” had a target mRNA inhibition of 86%.
“AGTTTTGTAAGTGCAA (sugars kkkddddkekekdddd, PS)” had a target mRNA inhibition (A431, 2 µM) of 77%.
“AGTATTGTTTTTGTGG (sugars k2 d4 e4 k2 d4, PS)” came in with a target mRNA inhibition (A431, 2 µM) of 85%.
The sequence “ACGCAATGCTGACTTG (sugars kkddddkekekddddd, PS)” came in with a target mRNA inhibition (A431, 2 µM) of 79%.
Turning to “TATTTCTTGATGTGGT (sugars kkddddkekekkdddd, PS)”, under “A431, 2 µM”, the target mRNA inhibition was determined as 71%.
On the same count and under the same terms, the same measure for “GAATTATGGAATTGCA (sugars k3 d4 k3 e1 d5, PS)”: 90%.
Take “GTTCTAACTCTTGGGC (sugars k2 d4 e3 k2 d5, PS)”: the target mRNA inhibition runs as follows: (A431, 0.0156 µM) 20%; (A431, 0.0625 µM) 35%; (A431, 0.25 µM) 65%; (A431, 1 µM) 85%; (A431, 2 µM) 91%.
On to “CAGATGGGTACTTCTG (sugars kkddddkekekkdddd, PS)”, for which the target mRNA inhibition (A431, 2 µM) amounted to 10%.
With “ATTCTCATGGTACAGG (sugars kkddddekekeddddd, PS)”, the target mRNA inhibition reads like this: (A431, 0.0156 µM) 40%; (A431, 0.0625 µM) 41%; (A431, 0.25 µM) 71%; (A431, 1 µM) 90%; (A431, 2 µM) 95%.
For the setting “A431, 2 µM”, “ATTCTATTAGAGGGCT (sugars kkddddkdkdkddddd, PS)” came in with a target mRNA inhibition of 74%.
Consider CTTATGCTTACTCCAC (sugars k4 d9 k3, PS), for which the target mRNA inhibition was determined as 64% (A431, 0.0625 µM); 75% (A431, 0.25 µM); 90% (A431, 1 µM).
“AAGTATTGCCAGCTAA (sugars k3 d4 k3 e1 d5, PS)” displayed a target mRNA inhibition (A431, 2 µM) of 49%.
On to “ACGCAATGCTGACTTG (sugars k3 d4 k3 e1 d5, PS)”, for which, where the note is “A431, 2 µM”, the target mRNA inhibition amounted to 88%.
As to “ATTCTCATGGTACAGG (sugars kddddkekekeddddd, PS)”, the target mRNA inhibition (A431, 2 µM) is 51%.
Sequence “CATTCAGAATTTCCAC (sugars kkddddekekeddddd, PS)” showed a target mRNA inhibition (A431, 2 µM) of 87%.
The sequence “TGTTATATTTGATCCT (sugars kkkddddkekekdddd, PS)” yielded a target mRNA inhibition (A431, 2 µM) of 59%.
Under “A431, 2 µM”, “TGTTCTAACTCTTGGG (sugars kkkddddkekeddddd, PS)” registered a target mRNA inhibition of 88%.
On to “ACGCAATGCTGACTTG (sugars kkddddekekeddddd, PS)”, for which the target mRNA inhibition stood at 6% (A431, 0.0156 µM); 23% (A431, 0.0625 µM); 59% (A431, 0.25 µM); 80% (A431, 1 µM); 92% (A431, 2 µM).
On to “TATTTCTTGATGTGGT (sugars kkdddddkekeddddd, PS)”, for which the target mRNA inhibition runs as follows: (A431, 0.0156 µM) 10%; (A431, 0.0625 µM) 59%; (A431, 0.25 µM) 87%; (A431, 1 µM) 96%; (A431, 2 µM) 99%.
As for AGTATTGCCAGCTAAG (sugars k4 d9 k3, PS), the target mRNA inhibition by setting is: (A431, 0.0625 µM) 63%; (A431, 0.25 µM) 89%; (A431, 1 µM) 97%.
“TTATATTTGATCCTCA (sugars kdddddkekekddddd, PS)” showed a target mRNA inhibition (A431, 2 µM) of 82%.
In turn, “GTATTTCTTGATGTGG (sugars kddddkekekeddddd, PS)” registered a target mRNA inhibition (A431, 2 µM) of 87%.
Take “GTGTTATATTTGATCC (sugars kkkddddkekeddddd, PS)”: the target mRNA inhibition by setting is: (A431, 0.0156 µM) 24%; (A431, 0.04 µM) 50%; (A431, 0.0625 µM) 66%; (A431, 0.25 µM) 89%; (A431, 1 µM) 95%; (A431, 2 µM) 96%.
Turning to “ATCAGATGGGTACTTC (sugars kkddddkekekkdddd, PS)”, where the note is “A431, 2 µM”, the target mRNA inhibition worked out at 45%.
“CCGTCAATATATTCTT (sugars kkkddddkekeddddd, PS)” registered a target mRNA inhibition (A431, 2 µM) of 97%.
With AATGTTTGCATTTGGG (sugars k4 d9 k3, PS), the target mRNA inhibition by setting is: (A431, 0.0625 µM) 95%; (A431, 0.25 µM) 99% and 97%; (A431, 1 µM) 100% and 98%.
Take CAAGTCAGTACAGAGC (sugars k4 d9 k3, PS): the target mRNA inhibition stood at 57% (A431, 0.0625 µM); 82% (A431, 0.25 µM); 94% (A431, 1 µM).
Regarding “GCTTTAAACTCAGGTG (sugars k2 d4 e3 k2 d5, PS)”, the target mRNA inhibition (A431, 2 µM) came out at 91%.
“AAGTATTGCCAGCTAA (sugars kkdddddkekeddddd, PS)” came in with a target mRNA inhibition (A431, 2 µM) of 73%.
Under “A431, 2 µM”, “GAAGCTTTAAACTCAG (sugars k2 d4 e3 k2 d5, PS)” displayed a target mRNA inhibition of 72%.
As for CACCATAGCACGAAGC (sugars k4 d9 k3, PS), the target mRNA inhibition reads like this: (A431, 0.0625 µM) 23%; (A431, 0.25 µM) 53%; (A431, 1 µM) 72%.
In the case of “TATATTTGATCCTCAA (sugars kkddddkekekkdddd, PS)”, where the note is “A431, 2 µM”, the target mRNA inhibition worked out at 77%.
For the sequence “ATGCTAATTTTCTGAC (sugars kkkddddkekekdddd, PS)”, the target mRNA inhibition worked out at 26% (A431, 0.0156 µM); 46% (A431, 0.0625 µM); 68% (A431, 0.25 µM); 88% (A431, 1 µM); 95% (A431, 2 µM).
With “CGCAATGCTGACTTGG (sugars kkddddkekekddddd, PS)”, under “A431, 2 µM”, the target mRNA inhibition was 83%.
“CGTGTTATATTTGATC (sugars k2 d4 e3 k2 d5, PS)” had a target mRNA inhibition (A431, 2 µM) of 74%.
Where the note is “A431, 2 µM”, “ATATCAGATGGGTACT (sugars k2 d4 e3 k2 d5, PS)” came in with a target mRNA inhibition of 52%.
The sequence “AGTATTGCCAGCTAAG (sugars kkddddkekekkdddd, PS)” came in with a target mRNA inhibition (A431, 2 µM) of 34%.
As for “TGAAGATTGGCTCTGG (sugars kkkddddkekeddddd, PS)”, the target mRNA inhibition (A431, 2 µM) worked out at 54%.
“ATCAGATGGGTACTTC (sugars kkkddddkekeddddd, PS)” showed a target mRNA inhibition (A431, 2 µM) of 85%.
Still for that read-out and setting: for “GTATTGCCAGCTAAGG (sugars kddddkekekeddddd, PS)” the value was 70%.
For the setting “A431, 2 µM”, “CTTTAAACTCAGGTGA (sugars kkdddddkekeddddd, PS)” came in with a target mRNA inhibition of 87%.
Take “ATTCTCATGGTACAGG (sugars kekddddeekkddddd, PS)”: the target mRNA inhibition (A431, 0.0156 µM) was 0%; the target mRNA inhibition (A431, 0.0625 µM) stood at 37%; the target mRNA inhibition (A431, 0.25 µM) was found to be 76%; the target mRNA inhibition (A431, 1 µM) was 90%; the target mRNA inhibition (A431, 2 µM) worked out at 96%.
For the setting “A431, 2 µM”, “TTATGAAATTATTGGT (sugars kkddddkekekkdddd, PS)” had a target mRNA inhibition of 63%.
In turn, “TTCTATTAGAGGGCTA (sugars kkkddddkekeddddd, PS)” gave a target mRNA inhibition (A431, 2 µM) of 91%.
Take “GTTCTAACTCTTGGGC (sugars kkddddkekekkdddd, PS)”: where the note is “A431, 2 µM”, the target mRNA inhibition stood at 52%.
Consider GGTAAGAGCGATGGGA (sugars k3 d10 k3, PS), for which the target mRNA inhibition is 79% (A431, 0.0625 µM); 93% (A431, 0.25 µM); 97% (A431, 1 µM).
For TGGATGGAAGGAACCT (sugars k4 d9 k3, PS), the target mRNA inhibition is, setting by setting: (A431, 0.0625 µM) 3%; (A431, 0.25 µM) 44%; (A431, 1 µM) 36%.
“GCTTTAAACTCAGGTG (sugars kkkddddkekekdddd, PS)” registered a target mRNA inhibition (A431, 2 µM) of 68%.
“ATCAGATGGGTACTTC (sugars kkddddekekeddddd, PS)”: the target mRNA inhibition (A431, 2 µM) stood at 73%.
Regarding “AGTATTGCCAGCTAAG (sugars kkddddekekeddddd, PS)”, the target mRNA inhibition (A431, 2 µM) stood at 78%.
Regarding “GAAGATTGGCTCTGGC (sugars kkkddddkekekdddd, PS)”, for the setting “A431, 2 µM”, the target mRNA inhibition amounted to 16%.
On to “GGCAGTTTTGTAAGTG (sugars kkddddkekekddddd, PS)”, for which, under “A431, 2 µM”, the target mRNA inhibition was determined as 65%.
For the sequence GAACATTGAAACACCA (sugars k4 d9 k3, PS), the target mRNA inhibition is 39% (A431, 0.0625 µM); 70% (A431, 0.25 µM); 89% (A431, 1 µM).
Take “GAGTATTGTTTTTGTG (sugars kkddddkekekkdddd, PS)”: the target mRNA inhibition (A431, 2 µM) worked out at 85%.
In the case of GTTATGAAATTATTGG (sugars k4 d9 k3, PS), the target mRNA inhibition is 58% and 42% (A431, 0.0625 µM); 87% and 73% (A431, 0.25 µM); 95% and 87% and 97% (A431, 1 µM).
As for “ATTCTATTAGAGGGCT (sugars kkkddddkdkdkdddd, PS)”, the target mRNA inhibition (A431, 2 µM) turned out to be 78%.
On to “GTTATATTTGATCCTC (sugars kkkddddkekekdddd, PS)”, for which the target mRNA inhibition (A431, 2 µM) is 66%.
As for “GCTTTAAACTCAGGTG (sugars kkkddddkdkdkdddd, PS)”, the target mRNA inhibition runs as follows: (A431, 0.0156 µM) 18%; (A431, 0.0625 µM) 54%; (A431, 0.25 µM) 81%; (A431, 1 µM) 93%; (A431, 2 µM) 93%.
“ATATCAGATGGGTACT (sugars kkddddkekekddddd, PS)” displayed a target mRNA inhibition (A431, 2 µM) of 21%.
The sequence “CAGTTTTGTAAGTGCA (sugars kkkddddkekeddddd, PS)” yielded a target mRNA inhibition (A431, 2 µM) of 92%.
With GCAATTTTATGGAACC (sugars k4 d9 k3, PS), the target mRNA inhibition by setting is: (A431, 0.04 µM) 42%; (A431, 1 µM) 91%.
As to “GGCATTCAGAATTTCC (sugars kkddddkekekddddd, PS)”, for the setting “A431, 2 µM”, the target mRNA inhibition was 46%.
With “GTGAGTATTGTTTTTG (sugars k2 d4 e3 k2 d5, PS)”, where the note is “A431, 2 µM”, the target mRNA inhibition worked out at 92%.
On to “ATTCTATTAGAGGGCT (sugars kkkddddkekeddddd, PS)”, for which the target mRNA inhibition (A431, 2 µM) was found to be 73%.
